Measurements reported in paper PMC11554305, “Functional identification of soluble uric acid as an endogenous inhibitor of CD38” (eLife, 2024).

Columns and labels:
CD38 = biological target: T1, CD38 (Homo sapiens, UniProt P28907); experiment: Hydrolase and cyclase activities of human and murine CD38; assay type: biochemical
T1 construct: host or cells: recombinant hCD38, cells and mouse tissues
T1 sequence (P28907 43-300): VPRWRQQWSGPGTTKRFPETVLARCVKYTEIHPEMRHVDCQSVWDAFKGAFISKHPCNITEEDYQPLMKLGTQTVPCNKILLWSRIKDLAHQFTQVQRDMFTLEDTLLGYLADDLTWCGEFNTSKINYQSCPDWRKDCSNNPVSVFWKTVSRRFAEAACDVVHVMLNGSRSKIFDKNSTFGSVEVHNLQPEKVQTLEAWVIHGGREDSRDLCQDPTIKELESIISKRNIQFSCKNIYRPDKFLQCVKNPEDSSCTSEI
Method: The hydrolase activity of CD38 was measured according to a previous report ([de Oliveira et al., 2018]) with minor modifications. CD38 hydrolase activity was measured using 50 μM ε-NAD^+ as a substrate in hydrolase reaction buffer (250 mM sucrose, 40 mM Tris-HCl, pH 7.4). Briefly, cells or tissues were directly homogenized in blank reaction buffer on ice, and recombinant hCD38 was diluted in blank reaction buffer for subsequent assays. The tissue homogenates were centrifuged to collect the supernatant for enzyme assays. The loading volume of enzyme was 4–30 μL, the total volume of the reaction system was 3 mL. To detect enzyme inhibition, except when specified, the ligands were directly dissolved in hydrolase reaction buffer before pH adjustment, after which, the pH was immediately adjusted to 7.4. All reaction buffers, with or without ligands, were freshly prepared before each assay. For measurement of hydrolase activity, 3 mL reaction buffer containing enzyme, ε-NAD^+, and ligands at indicated concentrations was maintained at 37°C with constant stirring.
The cyclase activity of CD38 was measured as previously described ([Higashida et al., 1999]; [Jin et al., 2007]). CD38 cyclase activity was measured using 60 μM NGD as a substrate in cyclase reaction buffer (100 mM KCl, 10 μM CaCl2, and 50 mM Tris-HCl, pH 6.6). Tissues were cut into pieces and suspended in the buffer (5 mM MgCl2, 10 mM Tris-HCl, pH 7.3) at 4°C for 30 min. Then, the suspension was homogenized on ice, and the supernatant was collected after centrifugation. To collect the crude membrane fractions, the supernatant was centrifuged at 105,000×g for 30 min. The final pellet was resuspended in 10 mM Tris-HCl solution (pH 6.6) for cyclase assay. Homogenates of THP-1 or A549 cells, and recombinant hCD38 were used directly for cyclase assays. The loading volume of enzyme was 4–20 μL, the total volume of reaction system was 3 mL. To detect enzyme inhibition, except when specified, the ligands were directly dissolved in cyclase reaction buffer before pH adjustment, after which, the pH was immediately adjusted to 6.6. All reaction buffers, with or without ligands, were freshly prepared before each assay. For measurement of cyclase activity, 3 mL reaction buffer containing enzyme, NGD, and ligands at indicated concentrations was maintained at 37°C with constant stirring.
The reaction buffer for hydrolase or cyclase assays was excited at 300 nm, and fluorescence emission was measured every second at 410 nm by Shimazu RF-6000 spectrofluorometer. Hydrolase or cyclase activity was calculated from the linear portion of the time course by fitting a linear function to the data points recorded within 5 min.
Guanosine was dissolved in DMSO and diluted in the reaction buffer for subsequent assays.
For reversibility test, recombinant hCD38 was pre-incubated for 30 min in four conditions: (1) control reaction buffer; (2) in the presence of 100 μM substrate (ε-NAD^+ or NGD); (3) 500 μM sUA; (4) both substrate and sUA. Subsequently, the enzyme was diluted 100-fold in reaction buffer in the presence or absence of 500 μM sUA for activity assays using ε-NAD^+ or NGD. Naïve THP-1 and A549 cells were incubated with RPMI-1640 medium in the presence or absence of 500 μM sUA for 2 hr. The cells were collected and homogenized in the reaction buffer on ice with or without 500 μM sUA, samples were then diluted 100-fold in reaction buffer with or without 500 μM sUA for enzyme assay. Control group was not treated with sUA in all steps; sUA group was treated with sUA in each step; sUA release group was treated with sUA prior to dilution in sUA-free buffer for enzyme assays.

recombinant hCD38 = biological target: T2, recombinant hCD38 (Homo sapiens, UniProt P28907); experiment: Metabolic assay of NMN (degradation by recombinant hCD38); assay type: biochemical; settings: NMN 200 μM, hCD38 20 ng/mL, 6 hr
T2 construct: the commercial recombinant hCD38 without a transmembrane region was partially used in this study; purchased Sino Biological 10818-H08H
T2 sequence (P28907 43-300 limits assumed): T1 sequence (P28907 43-300)
Method: To prepare the reaction buffer, sUA was directly dissolved in blank RPMI-1640 medium by addition of NaOH, and the pH was immediately adjusted by HCl. After pH adjustment, the medium containing sUA was filtered by 0.2 μm filter and diluted as indicated. The medium containing 20 ng/mL recombinant hCD38 was then placed in a cell incubator. The reaction was started with the addition of NMN (final concentration was 200 μM). After incubation for 6 hr, 20 μL medium was transferred into 180 μL 5% ice-cold PCA, then vortexed for 30 s and centrifuged at 15,000 rpm, 4°C for 10 min. The supernatant was stored at –80°C until further handling for NMN measurement (see LC-MS/MS analysis).
As mentioned above, samples (cells, tissues, blood, or reaction buffer) were treated with ice-cold PCA, after extraction and centrifugation, the collected supernatant was appropriately diluted in 5% ice-cold PCA when applicable, and then was vortexed for 30 s and centrifuged at 15,000 rpm, 4°C for 5 min. […] All the samples after handling were immediately analyzed in this study without freezing and thawing.
The LC-MS/MS system consisted of a triple quadrupole LCMS-8050 (Shimadzu) and an LC-30A system (Shimadzu). […] NAD^+ and NMN were measured independently in this study, as their peaks were hardly separated within a short time.

SMILES: O=c1[nH]c(=O)c2[nH]c(=O)[nH]c2[nH]1 [sUA, uric acid]
- Reversibility of the inhibitory effects on CD38 (CD38; 30 min pre-incubation with 500 μM sUA, 100-fold dilution, hCD38, A549, THP-1): reversible
- Mode of inhibition of CD38 (CD38; different substrate concentrations, Figure 1C, D): non-competitive inhibitor
- NMN degradation by recombinant hCD38 (recombinant hCD38): directly inhibited NMN degradation
